Experimental data reported in publication PMC12037410, “Pharmacological targeting of BMAL1 modulates circadian and immune pathways” (Nature Chemical Biology, 2025).

Biological target: BMAL1 (Homo sapiens, UniProt O00327)
Design: PASB domain (residues 338–449); Protein thermal shift (PTS) fragment screen on recombinant human BMAL1(PASB), shift of melting temperature
Details: dTmB; binder

Chain of BMAL1 (O00327 338-449): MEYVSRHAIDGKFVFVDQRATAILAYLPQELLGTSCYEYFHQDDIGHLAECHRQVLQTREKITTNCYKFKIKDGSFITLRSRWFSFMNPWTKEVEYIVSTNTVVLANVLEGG

First: Cc1ccccc1C(=O)Nc1ccccc1 [Prestw-Frag-3202, Compound 39]
Second: O=C(O)CC(c1ccccc1)c1ccccc1 [Prestw-Frag-3250, Compound 130]
The “Bmal1(PASB) dTmB” value of the first is lower: -1.32 °C for the first, -0.49 °C for the second.

Going from `Cc1cc(=O)n(-c2ccc(C)c(C)c2)[nH]1` [Prestw-Frag-3221, Compound 342] to `Cc1cc(C)[nH]c(=O)n1` [Prestw-Frag-3247, Compound 190], the “Bmal1(PASB) dTmB” value falls from 1.18 °C to 0.01 °C.

Going from `Oc1ccccc1OCC(F)(F)F` [Prestw-Frag-3225, Compound 113] to `CCOc1ccccc1C(=N)N` [Prestw-Frag-3314, Compound 150], the “Bmal1(PASB) dTmB” value rises from -0.44 °C to -0.32 °C.

Compared with `Cc1cn(-c2cc(N)cc(C(F)(F)F)c2)cn1` [Prestw-Frag-3241, Compound 458], `O=C(c1ccc(C(F)(F)F)cc1)C1CCCCC1` [Prestw-Frag-3334, Compound 225] is higher in “Bmal1(PASB) dTmB” value: -2.09 °C for the first, -0.21 °C for the second.

First: FC(F)(F)c1nnc2n1CCNC2 [Prestw-Frag-3253, Compound 136]
Second: CN1CCNCC1=O [Prestw-Frag-3460, Compound 125]
The “Bmal1(PASB) dTmB” value of the first is higher: 0.11 °C for the first, 0.00 °C for the second.

Compared with `CN1CCN(c2cc(N)ncn2)CC1` [Prestw-Frag-3262, Compound 191], `Nc1ncnc2c1ncn2CCO` [Prestw-Frag-3329, Compound 91] is lower in “Bmal1(PASB) dTmB” value: -0.17 °C for the first, -0.48 °C for the second.

Going from `Nc1ccn([C@H]2C[C@H](O)[C@@H](CO)O2)c(=O)n1` [Prestw-Frag-3264, Compound 107] to `Nc1ncn([C@@H]2O[C@H](CO)[C@@H](O)[C@H]2O)c(=O)n1` [Prestw-Frag-3302, Compound 121], the “Bmal1(PASB) dTmB” value falls from -0.01 °C to -0.02 °C.

Compared with `COc1ccc(S(=O)(=O)N2CCNCC2)cc1` [Prestw-Frag-3313, Compound 215], `O=C(CCCN1CCNCC1)c1ccc(F)cc1` [Prestw-Frag-3426, Compound 470] is lower in “Bmal1(PASB) dTmB” value: -0.02 °C for the first, -0.60 °C for the second.

Going from `Nc1ncc([N+](=O)[O-])s1` [Prestw-Frag-3324, Compound 478] to `CCOC(=O)c1cccnc1` [Prestw-Frag-3382, Compound 96], the “Bmal1(PASB) dTmB” value rises from -7.14 °C to -0.50 °C.

Going from `NC(=O)c1ccc2[nH]ccc2c1` [Prestw-Frag-3336, Compound 449] to `Cn1cc(CC(=O)O)c2ccccc21` [Prestw-Frag-3461, Compound 75], the “Bmal1(PASB) dTmB” value rises from -0.81 °C to -0.44 °C.

`Nc1ccc(CS(=O)(=O)N2CCCC2)cc1` [Prestw-Frag-3341, Compound 142] and `COc1ccc(CC(C)N)cc1` (stereo not shown) [Prestw-Frag-3342, Compound 241] are the same in “Bmal1(PASB) dTmB” value: -0.24 °C for the first, -0.24 °C for the second.

Going from `CS(=O)(=O)NC(Cc1ccccc1)C(=O)O` (stereo not shown) [Prestw-Frag-3362, Compound 137] to `CNS(=O)(=O)CCc1ccccc1` [Prestw-Frag-3368, Compound 97], the “Bmal1(PASB) dTmB” value falls from 0.29 °C to -0.29 °C.

First: COc1ccc(CCN)cc1OC [Prestw-Frag-3454, Compound 202]
Second: C#Cc1cccc(N)c1 [Prestw-Frag-3669, Compound 7]
The “Bmal1(PASB) dTmB” value of the first is higher: -0.13 °C for the first, -3.75 °C for the second.

Compared with `Oc1ccc(Cc2ccccc2)cc1` [Prestw-Frag-3455, Compound 469], `O=C1CN(Cc2ccccc2)CCN1` [Prestw-Frag-3459, Compound 48] is higher in “Bmal1(PASB) dTmB” value: -2.61 °C for the first, -0.65 °C for the second.

First: O=C1CNCCN1 [Prestw-Frag-3458, Compound 117]
Second: O=C1COCCN1 [Prestw-Frag-3463, Compound 118]
The “Bmal1(PASB) dTmB” value of the first is lower: -0.43 °C for the first, -0.27 °C for the second.

Compared with `NC1CCc2ccccc21` (stereo not shown) [Prestw-Frag-3462, Compound 90], `O=C1Cc2cc(F)ccc2N1` [Prestw-Frag-3667, Compound 261] is higher in “Bmal1(PASB) dTmB” value: -0.81 °C for the first, -0.23 °C for the second.

Compared with `Cn1ccc(=O)[nH]1` [Prestw-Frag-3664, Compound 92], `O=C(O)CC1CCCCC1` [Prestw-Frag-3668, Compound 169] is lower in “Bmal1(PASB) dTmB” value: 0.17 °C for the first, 0.13 °C for the second.
